In patent US20100022491A1, “4-HYDROXY-2-OXO-2,3-DIHYDRO-1,3-BENZOTHIAZOL-7YL COMPOUNDS FOR MODULATION OF B2-ADRENORECEPTOR ACTIVITY” (ASTRAZENECA AB, priority 2006, published 2010):
Structures can show the parent of a compound that is named as a salt.

What was measured:
[1] = biological target: T1, recombinant human α1D receptor (Homo sapiens, UniProt P25100); assay: Adrenergic α1D selectivity binding assay ([3H]-prazosin); details: inhibition of [3H]-prazosin (0.3 nM) binding, HEK293 membranes; for IC50: read-out: α1 bind pIC50 (converted)
T1 construct: expressed in transfected cells; host or cells: HEK293
T1 sequence (P25100 1-572): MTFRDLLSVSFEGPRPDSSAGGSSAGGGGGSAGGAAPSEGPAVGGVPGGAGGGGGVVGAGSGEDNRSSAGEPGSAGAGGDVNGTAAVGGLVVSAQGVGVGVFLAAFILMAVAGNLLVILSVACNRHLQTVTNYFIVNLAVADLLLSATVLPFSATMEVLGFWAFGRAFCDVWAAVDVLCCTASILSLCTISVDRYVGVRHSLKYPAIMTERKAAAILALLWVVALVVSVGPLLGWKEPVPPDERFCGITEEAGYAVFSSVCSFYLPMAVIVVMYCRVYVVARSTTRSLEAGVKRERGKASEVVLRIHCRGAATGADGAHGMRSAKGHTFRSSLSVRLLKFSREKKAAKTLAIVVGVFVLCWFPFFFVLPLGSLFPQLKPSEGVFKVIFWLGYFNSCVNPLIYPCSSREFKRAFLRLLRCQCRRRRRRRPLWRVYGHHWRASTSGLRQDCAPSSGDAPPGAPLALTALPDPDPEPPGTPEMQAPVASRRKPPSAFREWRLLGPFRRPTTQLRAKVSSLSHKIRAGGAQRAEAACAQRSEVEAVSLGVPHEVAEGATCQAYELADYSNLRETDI
How it was run: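 Displacement of [3H]-prazosin (0.3 nM) from recombinant human α1D receptor in HEK293-cell membranes, 2 h at room temperature, pH 7.4 HEPES/EDTA/gelatin buffer. Filtration and scintillation counting, non-specific binding set with 10 μM BMY7378; four-parameter logistic fit gives pIC50.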

[2] = biological target: T2, recombinant human adrenergic beta 1 receptors (Homo sapiens, UniProt P08588); assay: Adrenergic β1 selectivity binding assay ([125I]-Iodocyanopindolol); details: inhibition of [125I]-Iodocyanopindolol (0.036 nM) binding; for IC50: read-out: β1 bind p IC50 (converted)
T2 construct: purchased Euroscreen
T2 sequence (P08588 whole entry): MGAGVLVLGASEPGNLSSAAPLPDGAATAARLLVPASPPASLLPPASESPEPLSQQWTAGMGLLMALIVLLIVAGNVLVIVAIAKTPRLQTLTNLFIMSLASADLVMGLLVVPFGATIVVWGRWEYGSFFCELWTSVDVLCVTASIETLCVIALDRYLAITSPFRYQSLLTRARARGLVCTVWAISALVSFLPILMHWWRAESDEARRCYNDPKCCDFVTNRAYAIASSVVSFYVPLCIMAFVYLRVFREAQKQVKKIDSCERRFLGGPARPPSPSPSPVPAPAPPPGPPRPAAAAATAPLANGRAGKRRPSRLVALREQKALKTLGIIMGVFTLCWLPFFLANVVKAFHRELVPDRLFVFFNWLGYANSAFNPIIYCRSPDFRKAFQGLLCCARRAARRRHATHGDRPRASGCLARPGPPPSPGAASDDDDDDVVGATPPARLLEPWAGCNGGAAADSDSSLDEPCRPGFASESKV
How it was run: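 Displacement of [^125I]-Iodocyanopindolol (0.036 nM final) from human β1 receptor membranes, 2 hours at room temperature, pH 7.4 HEPES/EDTA/NaCl buffer. After filtration, scintillation counting; NSB set with 10 μM propranolol and subtracted. Four-parameter logistic fitting gave pIC50.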

[3] = biological target: T3, recombinant human Dopamine Subtype D2s receptors (Homo sapiens, UniProt P14416); assay: Dopamine D2 selectivity binding assay ([3H]-spiperone); details: inhibition of [3H]-spiperone (0.16 nM) binding; for IC50: read-out: D2 bind pIC50 (converted)
T3 construct: purchased Perkin Elmer
T3 sequence (P14416 1-414 isoform P14416-2): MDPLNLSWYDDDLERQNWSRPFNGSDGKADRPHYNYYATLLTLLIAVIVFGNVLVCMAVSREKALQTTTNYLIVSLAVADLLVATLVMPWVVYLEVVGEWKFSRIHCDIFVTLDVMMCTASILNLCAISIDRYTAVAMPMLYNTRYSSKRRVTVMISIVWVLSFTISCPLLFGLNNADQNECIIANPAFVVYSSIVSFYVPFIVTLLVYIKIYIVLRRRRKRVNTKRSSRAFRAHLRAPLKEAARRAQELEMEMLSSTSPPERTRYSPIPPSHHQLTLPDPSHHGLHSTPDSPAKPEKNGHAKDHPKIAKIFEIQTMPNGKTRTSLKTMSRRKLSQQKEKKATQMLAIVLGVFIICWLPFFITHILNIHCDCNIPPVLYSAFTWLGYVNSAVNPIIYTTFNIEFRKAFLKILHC
How it was run: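 Displacement of [3H]-spiperone (0.16 nM final) from human D2s receptor membranes in pH 7.4 HEPES buffer over 2 h at room temperature, then filtration and scintillation counting. Specific binding taken as vehicle minus 10 μM haloperidol wells. Potency given as pIC50 from a four-parameter logistic curve.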

| IC50 [1] | IC50 [2] | IC50 [3] | Structure (SMILES) | α1 bind pIC50 [1] | β1 bind p IC50 [2] | D2 bind pIC50 [3] |
| --- | --- | --- | --- | --- | --- | --- |
| – | – | – | O=C(CCNCCc1cccc(F)c1)N(CCNCCc1ccc(O)c2[nH]c(=O)sc12)C1CCCCC1 [Example 15, N-Cyclohexyl-N^3-[2-(3-fluorophenyl)ethyl]-N-(2-{[2-(4-hydroxy-2-oxo-2,3-dihydro-1,3-benzothiazol-7-yl)ethyl]amino}ethyl)-β-alaninamide bis-trifluoroacetic acid salt] | 6.7 | 5.2 | 6.4 |
| 50.1 nM | 2510 nM | 20 nM | O=C(CCNCCc1ccc(F)cc1F)N(CCNCCc1ccc(O)c2[nH]c(=O)sc12)C1CCCCCC1 [Example 55, N^1-Cycloheptyl-N^3-[2-(2,4-difluorophenyl)ethyl]-N^1-(2-{[2-(4-hydroxy-2-oxo-2,3-dihydro-1,3-benzothiazol-7-yl)ethyl]amino}ethyl)-β-alaninamide bis-trifluoroacetic acid salt] | – | – | – |
| 251 nM | 1260 nM | 31.6 nM | O=C(NCc1ccccc1)c1ccc(CCNCCC(=O)N(CCNCCc2ccc(O)c3[nH]c(=O)sc23)C2CCCCCC2)cc1 [Example 100, N-Benzyl-4-[2-({3-[cycloheptyl(2-{[2-(4-hydroxy-2-oxo-2,3-dihydro-1,3-benzothiazol-7-yl)ethyl]amino}ethyl)amino]-3-oxopropyl}amino)ethyl]benzamide bis-trifluoroacetic acid salt] | – | – | – |
| 158 nM | 3160 nM | 200 nM | O=C(CCNCCc1cccc(F)c1)N(CCNCCc1ccc(O)c2[nH]c(=O)sc12)C1CCCCCC1 [Example 36, N-Cycloheptyl-N^3-[2-(3-fluorophenyl)ethyl]-N-(2-{[2-(4-hydroxy-2-oxo-2,3-dihydro-1,3-benzothiazol-7-yl)ethyl]amino}ethyl)-β-alaninamide bis-trifluoroacetic acid salt] | – | – | – |
| 158 nM | 3980 nM | 316 nM | O=C(CCNCCc1cccs1)N(CCNCCc1ccc(O)c2[nH]c(=O)sc12)C1CCCCC1 [Example 35, N-Cyclohexyl-N-(2-{[2-(4-hydroxy-2-oxo-2,3-dihydro-1,3-benzothiazol-7-yl)ethyl]amino}ethyl)-N^3-[2-(2-thienyl)ethyl]-β-alaninamide bis-trifluoroacetic acid salt] | – | – | – |
| 316 nM | 2510 nM | 25.1 nM | O=C(CCNCCc1ccc(Cl)cc1)N(CCNCCc1ccc(O)c2[nH]c(=O)sc12)C1CCCCCC1 [Example 51, N^3-[2-(4-Chlorophenyl)ethyl]-N^1-cycloheptyl-N^1-(2-{[2-(4-hydroxy-2-oxo-2,3-dihydro-1,3-benzothiazol-7-yl)ethyl]amino}ethyl)-β-alaninamide bis-trifluoroacetic acid salt] | – | – | – |
| 501 nM | 1260 nM | 158 nM | O=C(CCNCCc1cccc(Cl)c1)N(CCNCCc1ccc(O)c2[nH]c(=O)sc12)C1CCC(F)(F)CC1 [Example 47, N^3-[2-(3-Chlorophenyl)ethyl]-N^1-(4,4-difluorocyclohexyl)-N^1-(2-{[2-(4-hydroxy-2-oxo-2,3-dihydro-1,3-benzothiazol-7-yl)ethyl]amino}ethyl)-β-alaninamide bis-trifluoroacetic acid salt] | – | – | – |
| 251 nM | 6310 nM | 158 nM | O=C(CCNCCc1nc2ccccc2[nH]1)N(CCNCCc1ccc(O)c2[nH]c(=O)sc12)C1CCCCC1 [Example 77, N^3-[2-(1H-Benzimidazol-2-yl)ethyl]-N^1-cyclohexyl-N^1-(2-{[2-(4-hydroxy-2-oxo-2,3-dihydro-1,3-benzothiazol-7-yl)ethyl]amino}ethyl)-β-alaninamide tris-trifluoroacetic acid salt] | – | – | – |
| 316 nM | 2510 nM | 50.1 nM | O=C(CCNCCc1cccc(OC(F)F)c1)N(CCNCCc1ccc(O)c2[nH]c(=O)sc12)C1CCCCCC1 [Example 54, N-Cycloheptyl-N^3-{2-[3-(difluoromethoxy)phenyl]ethyl}-N^1-(2-{[2-(4-hydroxy-2-oxo-2,3-dihydro-1,3-benzothiazol-7-yl)ethyl]amino}ethyl)-β-alaninamide bis-trifluoroacetic acid salt] | – | – | – |
| 1000 nM | 5010 nM | 251 nM | CC(C)(C)CN(CCNCCc1ccc(O)c2[nH]c(=O)sc12)C(=O)CCNCCc1ccc(Cl)c(Cl)c1 [Example 9, N^3-[2-(3,4-Dichlorophenyl)ethyl]-N-(2,2-dimethylpropyl)-N-(2-{[2-(4-hydroxy-2-oxo-2,3-dihydro-1,3-benzothiazol-7-yl)ethyl]amino}ethyl)-β-alaninamide bis-trifluoroacetic acid salt] | – | – | – |
| 794 nM | 5010 nM | 794 nM | CC(C)(C)CN(CCNCCc1ccc(O)c2[nH]c(=O)sc12)C(=O)CCNC(C)(C)Cc1ccccc1 [Example 38, N^3-(1,1-Dimethyl-2-phenylethyl)-N-(2,2-dimethylpropyl)-N-(2-{[2-(4-hydroxy-2-oxo-2,3-dihydro-1,3-benzothiazol-7-yl)ethyl]amino}ethyl)-β-alaninamide bis-trifluoroacetic acid salt] | – | – | – |
| 63.1 nM | 398 nM | 398 nM | O=C(CCNCCc1ccccc1)N(CCNCCc1ccc(O)c2[nH]c(=O)sc12)C1CCSCC1 [Example 62, N-(2-{[2-(4-Hydroxy-2-oxo-2,3-dihydro-1,3-benzothiazol-7-yl)ethyl]amino}ethyl)-N^3-(2-phenylethyl)-N^1-(tetrahydro-2H-thiopyran-4-yl)-β-alaninamide bis-trifluoroacetic acid salt] | – | – | – |
| 158 nM | 2510 nM | 200 nM | CCCC(CCC)N(CCNCCc1ccc(O)c2[nH]c(=O)sc12)C(=O)CCNCCc1cccc(F)c1 [Example 63, N^3-[2-(3-Fluorophenyl)ethyl]-N^1-(2-{[2-(4-hydroxy-2-oxo-2,3-dihydro-1,3-benzothiazol-7-yl)ethyl]amino}ethyl)-N^1-(1-propylbutyl)-β-alaninamide bis-trifluoroacetic acid salt] | – | – | – |
| 200 nM | 1260 nM | 251 nM | CC(C)(CN(CCNCCc1ccc(O)c2[nH]c(=O)sc12)C(=O)CCNCCc1ccccc1)c1ccccc1 [Example 45, N^1-(2-{[2-(4-Hydroxy-2-oxo-2,3-dihydro-1,3-benzothiazol-7-yl)ethyl]amino}ethyl)-N^1-(2-methyl-2-phenylpropyl)-N^3-(2-phenylethyl)-β-alaninamide bis-trifluoroacetic acid salt] | – | – | – |
| 200 nM | 3160 nM | 50.1 nM | O=C(CCNCCc1cccc(Cl)c1)N(CCNCCc1ccc(O)c2[nH]c(=O)sc12)C1CCCCC1 [Example 12, N^3-[2-(3-Chlorophenyl)ethyl]-N-cyclohexyl-N-(2-{[2-(4-hydroxy-2-oxo-2,3-dihydro-1,3-benzothiazol-7-yl)ethyl]amino}ethyl)-β-alaninamide bis-trifluoroacetic acid salt] | – | – | – |
| 79.4 nM | 794 nM | 31.6 nM | O=C(CCNCCc1cccc(Cl)c1)N(CCNCCc1ccc(O)c2[nH]c(=O)sc12)C1CCCCCC1 [Example 50, N^3-[2-(3-Chlorophenyl)ethyl]-N^1-cycloheptyl-N^1-(2-{[2-(4-hydroxy-2-oxo-2,3-dihydro-1,3-benzothiazol-7-yl)ethyl]amino}ethyl)-β-alaninamide bis-trifluoroacetic acid salt] | – | – | – |

| Structure (SMILES) | IC50 [1] | IC50 [2] | IC50 [3] | α1 bind pIC50 [1] | β1 bind p IC50 [2] | D2 bind pIC50 [3] |
| --- | --- | --- | --- | --- | --- | --- |
| O=C(CCNCCc1ccc(Cl)c(Cl)c1)N(CCNCCc1ccc(O)c2[nH]c(=O)sc12)C1CCOCC1 [Example 24, N^3-[2-(3,4-Dichlorophenyl)ethyl]-N-(2-{[2-(4-hydroxy-2-oxo-2,3-dihydro-1,3-benzothiazol-7-yl)ethyl]amino}ethyl)-N-(tetrahydro-2H-pyran-4-yl)-β-alaninamide bis-trifluoroacetic acid salt] | 631 nM | 2000 nM | 794 nM | – | – | – |
| CC(C)(C)CN(CCNCCc1ccc(O)c2[nH]c(=O)sc12)C(=O)CCNCCc1cccc(F)c1 [Example 44, N^1-(2,2-Dimethylpropyl)-N^3-[2-(3-fluorophenyl)ethyl]-N^1-(2-{[2-(4-hydroxy-2-oxo-2,3-dihydro-1,3-benzothiazol-7-yl)ethyl]amino}ethyl)-β-alaninamide bis-trifluoroacetic acid salt] | 316 nM | 5010 nM | 126 nM | – | – | – |
